Results: patent US20120190613A1, “ECHINOCANDIN DERIVATIVES” (priority 2009, published 2012)
Converted amounts (≈) assume the structure as drawn. Marks after values point to notes of the source that are not given here.

How the values were obtained:
[1] = tested on: A. flavus 626 ATCC 64025; assay: MIC by broth microdilution against A. flavus; format: cell-based; conditions: 48 hr, growth reduction of 50%
Experimental: (§1) MIC values (μg/mL) of echinocandin class compounds of the invention against various Candida and Aspergillus species were obtained as follows. Test organisms were obtained from the American Type Culture Collection (Manassas, Va.). The isolates were maintained at −80 ° C., then thawed and sub-cultured one day prior to testing (seven days for Aspergillus strains).
(§2) The mouse serum was heat-inactivated for 30 minutes at 56° C., and filtered through a 0.2 μm low protein binding filter unit prior to use.
(§3) MIC values were determined using broth microdilution. The wells of the daughter plates ultimately contained 180 μL of RPMI-1640 medium with and without mouse serum, 10 μL of drug solution, and 10 μL of yeast or fungal inoculum.
(§4) Prior to susceptibility testing, fungal isolates were removed from frozen storage, thawed at room temperature, and subcultured to Potato Dextrose Agar. The Candida strains were incubated overnight at 35° C. and the Aspergillus strains for 7 days at 25° C. Yeast colonies were inoculated into sterile saline and adjusted to the turbidity of a 0.5 McFarland standard. Inoculums from Aspergillus strains were prepared by washing the surface of an agar slant with 1 mL of sterile saline containing 0.05% of Tween 20. The resulting colloidial suspensions were adjusted to an optical density of 0.09 to 0.11 at λ 625 nm.
(§5) Both the yeast and filamentous fungus suspensions were further diluted 1:100 in RPMI-1640 medium and dispensed into sterile reservoirs and used to inoculate the daughter plates. 10 μL of standardized inoculum was delivered into each well. This yielded a final cell concentration in the daughter plates of approximately 2.5×10^3 colony-forming units/mL. Plates were incubated at 35° C. for approximately 48 hr.
(§6) Following incubation, microplates were viewed from the bottom using a plate viewer.

[2] = tested on: C. albicans 104 ATCC 90028; assay: MIC by broth microdilution against C. albicans; format: cell-based; conditions: 48 hr
Experimental: as §1, §2, §3, §4, §5, §6

[3] = tested on: C. parapsilosis 630 ATCC 90018; assay: MIC by broth microdilution against C. parapsilosis; format: cell-based; conditions: 48 hr
Experimental: as §1, §2, §3, §4, §5, §6

[4] = tested on: C. albicans R303; assay: Mouse candidiasis infection model, C. albicans density in kidneys; format: in vivo, female CD-1 mice; conditions: Second run, 5 mg/kg IP 2 hr after infection, kidneys at 24 hr
Experimental: The objective of these studies was to evaluate the efficacy of test compounds in the mouse candidiasis infection model.
The strain, C. albicans R303 was transferred from frozen storage onto Sabauroud dextrose agar (SDA) plates and grown for ˜24 hr at 35° C. The inoculum was prepared by transferring colonies from the plate to phosphate buffered saline (PBS) and the concentration adjusted to 10^6 CFU/mL with the aid of a spectrophotometer. The stock was diluted 1:9 to prepare the inoculum. Prior to each run the concentration was verified using the dilution plate count method.
The female CD-1 mice used in this study were obtained from Charles River Laboratories, Portage, MI. The animals were approximately seven-weeks-old at the start of the study and weighed about 16-26 g.
In one approach, mice were made neutropenic with IP injections of cyclophosphamide (150 mg/kg in 10 mL/kg) at 4 and 1 day before inoculation. Each animal was inoculated with the appropriate concentration by injecting 0.1 mL of inoculum into a tail vein. The test compounds were administered IP at 2 hr after infection.
The kidneys were collected from four mice in control group 1 (untreated) at 2 hr after infection, and from the remaining mice in the study at 24 hr after infection. Kidneys were removed aseptically from each mouse and were combined in a sterile tube. An aliquot (2 mL) of sterile PBS was added to each tube and the contents homogenized with a tissue homogenizer (Polytron 3100). Serial dilutions of the tissue homogenates were conducted and 0.1 mL aliquots were spread on SDA plates and the plates incubated at 35° C. overnight. The CFU/kidneys were determined from colony counts. Data were analyzed using one-way ANOVA with the Tukey-Kramer Multiple Comparisons Test (GraphPad InStat version 3.06, GraphPad Software, San Diego, Calif.).
Treatments were administered at 2 hr after infection with 2.1×10^5 CFU/mL of the organism. Data are the means of four mice.
Treatments were administered at 2 hr after infection with 6.4×10^5 CFU/mL of the organism. Data are the means of four mice.
Treatments were administered at 2 hr after infection with 3.8×10^5 CFU/mL of the organism. Data are the means of four mice.
Treatments were administered at 2 hr after infection with 3.8×10^5 CFU/rnL of the organism. Data are the means of four mice.

Structure (SMILES) | MIC ([1]; 0% mouse serum) | MIC ([1]; 50% mouse serum) | MIC ([2]; 0% mouse serum) | MIC ([2]; 50% mouse serum) | MIC ([3]; 0% mouse serum) | MIC ([3]; 50% mouse serum) | Difference from 24-hr control [4] | Mean log10 CFU/kidneys (±SD) [4]
CCC(C)CC(C)CCCCCCCCC(=O)NC1CC(O)C(NCCNC(=O)CCCCCCCOCCOCCOCCOCCOCCOCCOCCOC)NC(=O)C2C(O)CCN2C(=O)C(C(O)CCN)NC(=O)C(C(O)C(O)c2ccc(O)cc2)NC(=O)C2CC(O)CN2C(=O)C(C(C)O)NC1=O (stereo not drawn) [Compound 3] | 2 µg/mL (≈ 1.28 µM) | 8 µg/mL (≈ 5.14 µM) | 2 µg/mL (≈ 1.28 µM) | >16 µg/mL | >16 µg/mL | >16 µg/mL | – | –
CCCCCOc1ccc(-c2ccc(-c3ccc(C(=O)NC4CC(O)C(OCCOCCOCCOCCOCCOCCOCCOC)NC(=O)C5C(O)C(C)CN5C(=O)C(C(C)O)NC(=O)C(C(O)C(O)c5ccc(O)cc5)NC(=O)C5CC(O)CN5C(=O)C(C(C)O)NC4=O)cc3)cc2)cc1 (stereo not drawn) [Compound 6] | 0.125 µg/mL (≈ 0.0855 µM) | 0.5 µg/mL (≈ 0.342 µM) | 2 µg/mL (≈ 1.37 µM) | 8 µg/mL (≈ 5.47 µM) | >16 µg/mL | >16 µg/mL | – | –
CCC(C)CC(C)CCCCCCCCC(=O)NC1CC(O)C(OCCOCCOCCOCCOC)NC(=O)C2C(O)CCN2C(=O)C(C(O)CC(N)=O)NC(=O)C(C(O)C(O)c2ccc(O)cc2)NC(=O)C2CC(O)CN2C(=O)C(C(C)O)NC1=O (stereo not drawn) [Compound 8] | 0.5 µg/mL (≈ 0.398 µM) | 2 µg/mL (≈ 1.59 µM) | 8 µg/mL (≈ 6.37 µM) | >16 µg/mL | >16 µg/mL | >16 µg/mL | – | –
CCC(C)CC(C)CCCCCCCCC(=O)NC1CC(O)C(OCCOCCOCCOCCOCCOCCOCCOC)NC(=O)C2C(O)CCN2C(=O)C(C(O)CC(N)=O)NC(=O)C(C(O)C(O)c2ccc(O)cc2)NC(=O)C2CC(O)CN2C(=O)C(C(C)O)NC1=O (stereo not drawn) [Compound 9] | 2 µg/mL (≈ 1.44 µM) | 8 µg/mL (≈ 5.77 µM) | >16 µg/mL | >16 µg/mL | >16 µg/mL | >16 µg/mL | – | –
CCC(C)CC(C)CCCCCCCCC(=O)NC1CC(O)C(NCCNC(=O)OCCOCCOCCOC)NC(=O)C2C(O)CCN2C(=O)C(C(O)CCN)NC(=O)C(C(O)C(O)c2ccc(O)cc2)NC(=O)C2CC(O)CN2C(=O)C(C(C)O)NC1=O (stereo not drawn) [Compound 12] | – | – | – | – | – | – | −0.78 ns log10 CFU/kidneys | 4.42 ± 0.14 log10 CFU/kidneys
CCC(C)CC(C)CCCCCCCCC(=O)NC1CC(O)C(NCCNCCOC)NC(=O)C2C(O)CCN2C(=O)C(C(O)CCN)NC(=O)C(C(O)C(O)c2ccc(O)cc2)NC(=O)C2CC(O)CN2C(=O)C(C(C)O)NC1=O (stereo not drawn) [Compound 13] | – | – | – | – | – | – | −4.55*** log10 CFU/kidneys | 0.65 ± 0.75 log10 CFU/kidneys
CCC(C)CC(C)CCCCCCCCC(=O)NC1CC(O)C(NCCN)NC(=O)C2C(O)CCN2C(=O)C(C(O)CCNC(=O)OCCOC)NC(=O)C(C(O)C(O)c2ccc(O)cc2)NC(=O)C2CC(O)CN2C(=O)C(C(C)O)NC1=O (stereo not drawn) [Compound 14] | – | – | – | – | – | – | −1.13 ns log10 CFU/kidneys | 4.07 ± 0.17 log10 CFU/kidneys
